Laboratory results from patent publication US20180230143A1, “INHIBITORS OF NHR2 AND/OR RUNX1/ETO-TETRAMERIZATION” (Heinrich-Heine-Universität Düsseldorf, priority 2013, published 2018).
Read-outs that look alike come from different tables or passages of the source.

Experiments:
Format in all cases: biochemical
RUNX1-BCR protein [1] = molecular target: T1, RUNX1-BCR protein (Homo sapiens, UniProt P11274+Q01196); assay: ABCD (avidin, biotin, complex, DNA) assay with RUNX1-BCR protein; conditions: for inhibition at 1000 µM: read-out: ABCD Inhibition [%] BCR; for inhibition of binding of the RUNX1-BCR protein, ABCD: c=1100 μM in ABCD assay
T1 construct: replacing the NHR2 domain of the construct with the homologous BCR tetramerization domain (RUNX1-BCR protein); His6 (C); made in house; host or cells: E. coli BL21(DE3)
Experimental: (§1) Oligonucleotides were annealed to the corresponding unmodified antisense oligonucleotide to generate the RUNX1 binding site. Purified RUNX1 proteins were pre-incubated with a compound for 1 h at 4° C. Similarly the biotinylated double-stranded oligonucleotides were pre-incubated with streptavidin coated magnetic beads (Dynabeads M-280 Streptavidin, Invitrogen) for 1 h at 4° C. Protein/compound samples and beads with bound oligonucleotide were incubated in binding buffer (25 mM HEPES, pH 7.5, 50 mM KCl, 1 mM EDTA, pH 8.0, 10 mM MgCl2, 5% glycerol, 1 mM DTT) in the presence of 2% IGEPAL CA-630, 1 μg of salmon sperm, and 0.1% BSA for […]. After washing three times, the bound proteins were eluted from beads in SDS-PAGE sample buffer and resolved on SDS-PAGE followed by immunoblotting with a primary anti-myc (9E10, Santa Cruz) antibody and a secondary HRP-coupled antibody (goat anti-mouse IgG-HRP, Santa Cruz).

RUNX1-NHR2 protein [2] = molecular target: T2, RUNX1-NHR2 protein (Homo sapiens, UniProt Q01196+Q06455); assay: ELISA: tetramer-dependent binding of RUNX1-NHR2 protein to immobilized RUNX3 oligonucleotide; conditions: for inhibition at 1000 µM / inhibition at 2000 µM: read-out: ELISA Inhibition [%] NHR2; for inhibition of tetramer-dependent binding of the RUNX1-NHR2 protein to immobilized RUNX3 oligonucleotide, ELISA: [P1]=500 μM and [PPIM]=2000 μM in ELISA; for IC50: inhibition of tetramerization of the RUNX1-NHR2 protein
T2 construct: the wild type NHR2 tetramerization domain or the homologous BCR tetramerization domain (highlighted) are optionally enclosed by an N-terminal RUNX1 domain; His6 (C); made in house; host or cells: E. coli BL21(DE3)
Experimental: Preferably, for enzyme-linked immunosorbent assays (ELISA), wells of a 96 well plate were coated with 100 ng streptavidin (Dianova) in PBS over night at 4° C. […] Binding of RUNX1-containing proteins to the R3 oligonucleotide was detected with a primary anti-myc antibody (9E10, Santa Cruz) and a secondary HRP-coupled antibody (donkey anti-mouse IgG-HRP, Santa Cruz). ELISA was developed using the Sure Blue TMB Microwell Peroxidase substrate (KLP), and the reaction was stopped with sulfuric acid (1 N). Absorption at 450 nm and 650 nm was measured with the Spectra Max 340, Molecular Devices. Preferably, the ELISA assay is as further described in the experimental section.
The inhibition of NHR2 tetramerization was measured in vitro by tetramer-dependent binding of a RUNX1-NHR2 protein construct to an immobilized oligonucleotide derived from the RUNX3 promoter sequence in ELISA and ABCD assays. […] Furthermore, the influence of the inhibitors on the viability of RUNX1/ETO-dependent SKNO-1 cells was determined; as a control RUNX1/ETO-independent U937 cells were used.
The principle of the biochemical assays for measuring inhibition of NHR2 tetramerization is illustrated in FIG. 1. NHR2 tetramerization and its inhibition was measured in a purpose-built sandwich ELISA (enzyme-linked immunosorbent assay: FIG. 1A). • i) The RUNX1-NHR2 tetramer specifically binds to the biotinylated RUNX3-oligonucleotide (RUNX3-oligo^bio) that is immobilized on a streptavidine coated surface (SA). Disrupting the RUNX1-NHR2 tetramer into dimers leads to a release of the RUNX1-NHR2 protein from the surface. Antibody-conjugated horseradish peroxidase (HRP) binds to a primary anti-myc antibody (α-myc AB) that binds to the immobilized myc-labeled RUNX1-NHR2 tetramer. HRP catalyzes the conversion of 3,3′,5,5′-tetramethylbenzidine (TMB) to 3,3′,5,5-tetramethylbenzidine diimine.
Wells of a 96 well plate were coated with 100 ng streptavidin (Dianova) in PBS over night at 4° C. […] RUNX1-containing proteins were incubated with synthetic peptides or chemical compounds in binding buffer (25 mM HEPES, pH 7.5, 50 mM KCl, 1 mM EDTA, pH 8.0, 10 mM MgCl2, 5% glycerol, 1 mM DTT) in the presence of 1 μg salmon sperm and 1% IGEPAL CA-630 for 5 h and subsequently added to the streptavidin-bound R3 oligonucleotide for 15 min on the 96 well plate. Binding of RUNX1-containing proteins to the R3 oligonucleotide was detected with a primary anti-myc antibody (9E10, Santa Cruz) and a secondary HRP-coupled antibody (donkey anti-mouse IgG-HRP, Santa Cruz). ELISA was developed using the Sure Blue TMB Microwell Peroxidase substrate (KLP), and the reaction was stopped with sulfuric acid (1 N). Absorption at 450 nm and 650 nm was measured with the Spectra Max 340, Molecular Devices.

RUNX1-BCR protein [3] = molecular target: T1, RUNX1-BCR protein; assay: ELISA: tetramer-dependent binding of RUNX1-BCR protein to immobilized RUNX3 oligonucleotide (selectivity control); conditions: for inhibition at 1000 µM / inhibition at 2000 µM: read-out: ELISA Inhibition [%] BCR; for inhibition of binding of the RUNX1-BCR protein, ELISA: [P1]=500 μM and [PPIM]=2000 μM in ELISA
RUNX1-NHR2 protein [4] = molecular target: T2, RUNX1-NHR2 protein; assay: ABCD (avidin, biotin, complex, DNA) assay with RUNX1-NHR2 protein; conditions: for inhibition at 1000 µM: read-out: ABCD Inhibition [%] NHR2; for inhibition of tetramer-dependent binding of the RUNX1-NHR2 protein to immobilized RUNX3 oligonucleotide, ABCD: c=1100 μM in ABCD assay
Experimental: as §1

NHR2 protein = molecular target: T3, NHR2 protein (Homo sapiens, UniProt Q06455); assay: BS3 cross-linking assay of NHR2 oligomers; conditions: for inhibition of NHR2 tetramerization (reduction of BS3 cross-linked NHR2 oligomers): c=1100 μM
T3 construct: the wild type NHR2 tetramerization domain or the homologous BCR tetramerization domain (highlighted) are optionally enclosed by an N-terminal RUNX1 domain; His6 (C); made in house; host or cells: E. coli BL21(DE3)
T3 sequence (Q06455 334-400): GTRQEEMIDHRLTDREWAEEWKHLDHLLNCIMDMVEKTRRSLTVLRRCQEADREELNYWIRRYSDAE
Experimental: Preferably, for the cross-linking assay, purified NHR2 protein or NHR2-containing protein (5 μM) was incubated with the peptides at 4° C. for 1 h. The BS^3 (Bis[sulfosuccinimidyl] suberate) crosslink-reaction was performed at a final concentration of 1 mM for 30 min at RT. Tris-HCl (0.05 M, pH 7.4) was added to the reaction mix and incubated for 10 min to stop the reaction. […] was analyzed by western blotting. For protein detection, the membrane was incubated with a primary anti-myc antibody (9E10, Santa Cruz) and a secondary HRP-coupled antibody (goat anti-mouse IgG-HRP, Santa Cruz). Preferably, the cross-linking assay is as further described in the experimental section.
Purified NHR2 protein (5 μM) was incubated with the peptides at 4° C. for 1 h. The BS^3 (Bis[sulfosuccinimidyl] suberate) crosslink-reaction was performed at a final concentration of 1 mM for 30 min at RT. Tris-HCl (0.05 M, pH 7.4) was added to the reaction mix and incubated for 10 min to stop the reaction. Protein-oligomerization was analyzed by western blotting. For protein detection, the membrane was incubated with a primary anti-myc antibody (9E10, Santa Cruz) and a secondary HRP-coupled antibody (goat anti-mouse IgG-HRP, Santa Cruz).

[5] = relative inhibition at 1 mM inhibitor concentration, RUNX1-BCR
[6] = relative inhibition at 1 mM inhibitor concentration, RUNX1-NHR2 protein
[7] = measured at 2 mM concentration, RUNX1-NHR2 protein
[8] = measured at 2 mM concentration, RUNX1-BCR

T1 sequence (Q01196+P11274 fused): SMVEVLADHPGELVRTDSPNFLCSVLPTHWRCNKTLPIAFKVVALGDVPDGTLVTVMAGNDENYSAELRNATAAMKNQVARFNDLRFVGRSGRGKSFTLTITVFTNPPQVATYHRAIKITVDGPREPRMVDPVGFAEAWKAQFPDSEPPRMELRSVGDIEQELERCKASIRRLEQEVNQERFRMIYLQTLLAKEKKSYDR
T2 sequence (Q01196+Q06455 fused): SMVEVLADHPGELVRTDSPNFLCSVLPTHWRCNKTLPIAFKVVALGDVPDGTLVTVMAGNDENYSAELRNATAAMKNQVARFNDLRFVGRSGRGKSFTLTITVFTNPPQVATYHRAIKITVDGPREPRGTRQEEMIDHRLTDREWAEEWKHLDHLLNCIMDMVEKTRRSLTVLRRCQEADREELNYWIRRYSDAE

O=C(O)c1ccccc1OCc1cn2ccccc2n1 [Compound 2b, 2-(imidazo[1,2-a]pyridin-2-ylmethoxy)benzoic acid]
inhibition at 1000 µM (RUNX1-BCR protein [1]; [5]): 11.8% | inhibition at 50 µM (RUNX1-NHR2 protein [2]; measured at 50 μM concentration, RUNX1-NHR2 protein): 83.1% | inhibition at 50 µM (RUNX1-BCR protein [3]; measured at 50 μM concentration, RUNX1-BCR): 41.5% | inhibition at 1000 µM (RUNX1-NHR2 protein [4]; [6]): 49.4%

O=C(CSc1nc2ccccc2[nH]1)Nc1ccc(Cl)c(C(=O)O)c1 [Compound 5.4, 5-(2-(1H-benzo[d]imidazol-2-ylthio)acetamido)-2-chlorobenzoic acid]
inhibition at 1000 µM (RUNX1-BCR protein [1]; [5]): -3.3% | inhibition at 1000 µM (RUNX1-NHR2 protein [2]; [6]): 89.7% | inhibition at 1000 µM (RUNX1-BCR protein [3]; [5]): 35.4% | inhibition at 1000 µM (RUNX1-NHR2 protein [4]; [6]): 63.9%

COc1ccc(-c2ccc(CCC(=O)O)n2CCC(=O)O)cc1 [Compound 5.8, 3,3′-(5-(4-methoxyphenyl)-1H-pyrrole-1,2-diyl)dipropanoic acid]
inhibition at 1000 µM (RUNX1-BCR protein [1]): 56.1% | inhibition at 1000 µM (RUNX1-NHR2 protein [2]): 70.3% | inhibition at 1000 µM (RUNX1-BCR protein [3]): 12% | inhibition at 1000 µM (RUNX1-NHR2 protein [4]): 68.2%

Cc1oc(C(=O)O)cc1CSCc1cc(C(=O)O)oc1C [Compound 5.9, 5,5′-dimethyl-4,4′-(sulfanediylbis(methyl))-di(furan-2-carboxylic acid)]
inhibition at 1000 µM (RUNX1-BCR protein [1]; [5]): 14.6% | inhibition at 1000 µM (RUNX1-NHR2 protein [2]; [6]): 51.7% | inhibition at 1000 µM (RUNX1-BCR protein [3]; [5]): 20.7% | inhibition at 1000 µM (RUNX1-NHR2 protein [4]; [6]): 52.5%

Cc1c(CC(=O)NCCC(=O)O)c(=O)oc2c(C)c3occ(C(C)(C)C)c3cc12 [Compound 5.17, 3-(2-(3-tert-butyl-5,9-dimethyl-7-oxo-7H-furo[3,2-g]chromen-6-yl)acetamido)propanoic acid]
inhibition at 1000 µM (RUNX1-BCR protein [1]; [5]): 95.3% | inhibition at 1000 µM (RUNX1-NHR2 protein [2]; [6]): 41.7% | inhibition at 1000 µM (RUNX1-BCR protein [3]; [5]): 15.9% | inhibition at 1000 µM (RUNX1-NHR2 protein [4]; [6]): 89.5%

COc1ccc(OC)c2[nH]c(C(=O)NCC3(CC(=O)O)CCCCC3)cc12 [Compound 5.18, 2-(1-((4,7-dimethoxy-1H-indole-2-carboxamido)methyl)cyclohexyl)acetic acid]
inhibition at 1000 µM (RUNX1-BCR protein [1]; [5]): 52.6% | inhibition at 1000 µM (RUNX1-NHR2 protein [2]; [6]): 80.5% | inhibition at 1000 µM (RUNX1-BCR protein [3]; [5]): 3.9% | inhibition at 1000 µM (RUNX1-NHR2 protein [4]; [6]): 83%

Cc1ccc(OCC(=O)O)c(OCC(=O)O)c1 [Compound 7.3, 2-[2-(carboxymethyloxy)-4-methyl-phenoxy]acetic acid]
inhibition at 1000 µM (RUNX1-BCR protein [1]; [5]): 28.5% | inhibition at 2000 µM (RUNX1-NHR2 protein [2]; [7]): 94.4% | inhibition at 2000 µM (RUNX1-BCR protein [3]; [8]): 31.5% | inhibition at 1000 µM (RUNX1-NHR2 protein [4]; [6]): 57.7%

O=C(O)COc1cccc(OCC(=O)O)c1 [Compound 7.4, 2,2′-(1,3-phenylenebis(oxy))diacetic acid]
inhibition at 1000 µM (RUNX1-BCR protein [1]; [5]): 6.1% | inhibition at 2000 µM (RUNX1-NHR2 protein [2]; [7]): 71.6% | inhibition at 2000 µM (RUNX1-BCR protein [3]; [8]): 10% | inhibition at 1000 µM (RUNX1-NHR2 protein [4]; [6]): 47.4%

COc1cc(CC(C(=O)O)C(C)C(=O)c2ccc3c(c2)OCO3)cc(OC)c1OC (stereo not shown) [Compound 7.18, 4-(benzo[d][1,3]dioxol-5-yl)-3-methyl-4-oxo-2-(3,4,5-trimethoxybenzyl)butanoic acid]
inhibition of binding of the RUNX1-BCR protein, ABCD (RUNX1-BCR protein [1]): is not inhibited | inhibition at 1000 µM (RUNX1-BCR protein [1]): -2.2% | inhibition of tetramer-dependent binding of the RUNX1-NHR2 protein to immobilized RUNX3 oligonucleotide, ELISA (RUNX1-NHR2 protein [2]): selectively inhibit | inhibition at 2000 µM (RUNX1-NHR2 protein [2]): 47.7% | inhibition of binding of the RUNX1-BCR protein, ELISA (RUNX1-BCR protein [3]): is not inhibited | inhibition at 2000 µM (RUNX1-BCR protein [3]): -6.7% | inhibition of tetramer-dependent binding of the RUNX1-NHR2 protein to immobilized RUNX3 oligonucleotide, ABCD (RUNX1-NHR2 protein [4]): selectively inhibit | inhibition at 1000 µM (RUNX1-NHR2 protein [4]): 80.2%

Ac-VARRCAEAAREALNYAIR-NH2 [P3, reference compound]
inhibition of NHR2 tetramerization (reduction of BS3 cross-linked NHR2 oligomers) (NHR2 protein): neither P2, P3 nor the unrelated peptide CP inhibit NHR2 tetramerization | IC50 (RUNX1-NHR2 protein [2]): > 2000 µM

Ac-VLRRCQEADREELNYWIR-NH2 [P1, reference compound]
dose dependence of inhibition of NHR2 tetramerization (cross-linking) (NHR2 protein): dose-dependent | inhibition of NHR2 tetramerization (reduction of BS3 cross-linked NHR2 oligomers) (NHR2 protein): inhibit NHR2 tetramerization | IC50 (NHR2 protein; read-out: IC50 of inhibition of NHR2 tetramerization (cross-linking)): 250 µM | inhibition of binding of the RUNX1-BCR protein, ABCD (RUNX1-BCR protein [1]): is not inhibited | inhibition of tetramer-dependent binding of the RUNX1-NHR2 protein to immobilized RUNX3 oligonucleotide, ELISA (RUNX1-NHR2 protein [2]): selectively inhibit | IC50 (RUNX1-NHR2 protein [2]): 460 µM | inhibition at 1000 µM (RUNX1-NHR2 protein [2]; [6]): 42.8% | inhibition of binding of the RUNX1-BCR protein, ELISA (RUNX1-BCR protein [3]): is not inhibited | inhibition at 1000 µM (RUNX1-BCR protein [3]; [5]): 9.2% | inhibition of tetramer-dependent binding of the RUNX1-NHR2 protein to immobilized RUNX3 oligonucleotide, ABCD (RUNX1-NHR2 protein [4]): selectively inhibit
